Measured values as given in the supplement of paper PMC10307832.

Key:
Experiment in all cases: relative viability (nuclei count vs DMSO), 5 days (fraction); higher = more cells survive
Carboplatin + Linsitinib = compound: C1CC(C1)(C(=O)O)C(=O)O.[NH2-].[NH2-].[Pt+2] [Carboplatin] + C[C@]1(O)C[C@@H](c2nc(-c3ccc4ccc(-c5ccccc5)nc4c3)c3c(N)nccn32)C1 [Linsitinib] (partner 1 µM)
In short: (§1)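 After 5 days of treatment, lung cancer cells in 1536-well plates were fixed and stained in a single step (final 0.05% Triton X-100, 1% formaldehyde, 1 ug/ml Hoechst) and their nuclei counted on 4× images. Treatment had been applied by pin tool the day after seeding as one drug alone or as a fixed anchor-drug dose with five library-drug doses (not always all listed) in √10 steps. Relative viability is the nuclei count of treated wells divided by that of vehicle wells, and values are medians of duplicate plates.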

Carboplatin + Phenformin = compound: C1CC(C1)(C(=O)O)C(=O)O.[NH2-].[NH2-].[Pt+2] [Carboplatin] + N=C(N)NC(=N)NCCc1ccccc1 [Phenformin] (partner 250 µM)
In short: as §1

GSK126 + Palbociclib = compound: CC[C@H](C)N1C=C(C2=C(C=C(C=C21)C3=CN=C(C=C3)N4CCNCC4)C(=O)NCC5=C(C=C(NC5=O)C)C)C [GSK126] + CC(=O)c1c(C)c2cnc(Nc3ccc(N4CCNCC4)cn3)nc2n(C2CCCC2)c1=O [Palbociclib] (partner 0.5 µM)
In short: as §1

MLN4924 + Linsitinib = compound: NS(=O)(=O)OC[C@@H]1C[C@@H](n2ccc3c(N[C@H]4CCc5ccccc54)ncnc32)C[C@@H]1O [MLN4924] + C[C@]1(O)C[C@@H](c2nc(-c3ccc4ccc(-c5ccccc5)nc4c3)c3c(N)nccn32)C1 [Linsitinib] (partner 1 µM)
In short: as §1

UMC-11 showed a relative viability (Carboplatin + Linsitinib; first compound 0.08 µM) of 1.02, a relative viability (Carboplatin + Linsitinib; first compound 0.253 µM) of 1.01 and a relative viability (Carboplatin + Linsitinib; first compound 0.8 µM) of 0.928. It also gave a relative viability (Carboplatin + Linsitinib; first compound 2.53 µM) of 0.98, a relative viability (Carboplatin + Linsitinib; first compound 8 µM) of 0.837 and a relative viability (Carboplatin + Phenformin; first compound 0.08 µM) of 0.346. It also gave a relative viability (Carboplatin + Phenformin; first compound 0.253 µM) of 0.324, a relative viability (Carboplatin + Phenformin; first compound 0.8 µM) of 0.317 and a relative viability (Carboplatin + Phenformin; first compound 2.53 µM) of 0.331. The relative viability (Carboplatin + Phenformin; first compound 8 µM) was 0.275, the relative viability (GSK126 + Palbociclib; first compound 0.08 µM) was 0.353 and the relative viability (GSK126 + Palbociclib; first compound 0.253 µM) was 0.32. It also gave a relative viability (GSK126 + Palbociclib; first compound 0.8 µM) of 0.328, a relative viability (GSK126 + Palbociclib; first compound 2.53 µM) of 0.405 and a relative viability (GSK126 + Palbociclib; first compound 8 µM) of 0.344. For the same cell line, the relative viability (MLN4924 + Linsitinib; first compound 0.04 µM) was 0.645, the relative viability (MLN4924 + Linsitinib; first compound 0.1265 µM) was 0.331 and the relative viability (MLN4924 + Linsitinib; first compound 0.4 µM) was 0.238. The relative viability (MLN4924 + Linsitinib; first compound 1.265 µM) was 0.194 and the relative viability (MLN4924 + Linsitinib; first compound 4 µM) was 0.153.
